# Measured values from patent US20250059171A1 (Hoffmann-La Roche Inc., priority 2021, published 2025).
# Key:
# HCoV-229E 3CLpro = HCoV-229E 3CLpro (Human coronavirus 229E, UniProt P0C6X1); test: HCoV-229E 3CLpro inhibition assay (FRET); format: biochemical
# SARS-CoV-2 3CLpro = SARS-CoV-2 3CLpro (Severe acute respiratory syndrome coronavirus 2, UniProt P0DTD1); test: biochemical
# SARS-CoV 3CLpro = SARS-CoV 3CLpro (Severe acute respiratory syndrome coronavirus, UniProt P0C6X7); test: biochemical
# MERS-CoV 3CLpro = MERS-CoV 3CLpro (Middle East respiratory syndrome-related coronavirus, UniProt K9N7C7); test: biochemical
# Chain of MERS-CoV 3CLpro (K9N7C7 3248-3553): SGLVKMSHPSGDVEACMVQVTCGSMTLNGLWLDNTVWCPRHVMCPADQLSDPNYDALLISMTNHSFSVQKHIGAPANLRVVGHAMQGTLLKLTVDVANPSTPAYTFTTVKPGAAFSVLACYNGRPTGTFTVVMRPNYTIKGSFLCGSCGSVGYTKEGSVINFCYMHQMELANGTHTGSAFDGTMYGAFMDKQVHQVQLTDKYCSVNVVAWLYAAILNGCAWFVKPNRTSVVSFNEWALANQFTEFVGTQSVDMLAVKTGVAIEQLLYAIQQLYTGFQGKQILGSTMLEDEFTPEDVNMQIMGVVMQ
# Chain of HCoV-229E 3CLpro (P0C6X1 2966-3267): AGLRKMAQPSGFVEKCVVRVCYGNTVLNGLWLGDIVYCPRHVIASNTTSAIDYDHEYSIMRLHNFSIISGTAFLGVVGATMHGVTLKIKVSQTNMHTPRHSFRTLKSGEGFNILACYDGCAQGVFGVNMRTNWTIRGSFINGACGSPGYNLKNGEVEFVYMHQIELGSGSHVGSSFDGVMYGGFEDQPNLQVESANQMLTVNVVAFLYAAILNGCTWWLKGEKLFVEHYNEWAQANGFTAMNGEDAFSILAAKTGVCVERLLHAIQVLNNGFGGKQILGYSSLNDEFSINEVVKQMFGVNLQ
compound,measurement,setting,value
"CC(C)(C)[C@H](NC(=O)C(F)(F)F)C(=O)N1C[C@@H]2CCC[C@@H]2[C@H]1C(=O)NN(C[C@@H]1CCCNC1=O)C(=O)[C@H](F)Cl [Example 164a, N-[(1S)-1-[(3S,3aS,6aR)-3-[[[(2R)-2-chloro-2-fluoro-acetyl]-[[(3S)-2-oxo-3-piperidyl]methyl]amino]carbamoyl]-3,3a,4,5,6,6a-hexahydro-1H-cyclopenta[c]pyrrole-2-carbonyl]-2,2-dimethyl-propyl]-2,2,2-trifluoro-acetamide]",IC50,HCoV-229E 3CLpro,98 nM
same,IC50,SARS-CoV-2 3CLpro,8 nM
same,IC50,SARS-CoV 3CLpro,16 nM
same,IC50,MERS-CoV 3CLpro,243 nM
"CC[C@@H](C)[C@H](NC(=O)[C@@H](C)F)C(=O)N1C[C@H]2[C@@H]([C@H]1C(=O)NN(C[C@@H]1CCNC1=O)C(=O)[C@H](F)Cl)C2(C)C [Example 116, (2R)—N-[(1S,2R)-1-[(1R,2S,5S)-2-[[[(2R)-2-chloro-2-fluoro-acetyl]-[[(3S)-2-oxopyrrolidin-3-yl]methyl]amino]carbamoyl]-6,6-dimethyl-3-azabicyclo[3.1.0]hexane-3-carbonyl]-2-methyl-butyl]-2-fluoro-propanamide]",IC50,HCoV-229E 3CLpro,36 nM
same,IC50,SARS-CoV-2 3CLpro,14 nM
same,IC50,SARS-CoV 3CLpro,18 nM
same,IC50,MERS-CoV 3CLpro,98 nM
CC(C)(C)[C@H](Nc1ncncc1F)C(=O)N1C[C@@H]2CCC[C@@H]2[C@H]1C(=O)NN(C[C@@H]1CCNC1=O)C(=O)[C@H](F)Cl [Example 183],IC50,HCoV-229E 3CLpro,59 nM
same,IC50,SARS-CoV-2 3CLpro,11 nM
same,IC50,SARS-CoV 3CLpro,16 nM
same,IC50,MERS-CoV 3CLpro,174 nM
"CC1(C)[C@@H]2[C@@H](C(=O)NN(C[C@@H]3CCNC3=O)C(=O)[C@H](F)Cl)N(C(=O)[C@H](Cc3ccncc3)NC(=O)C(F)(F)F)C[C@@H]21 [Example 67, N-[(1S)-2-[(1R,2S,5S)-2-[[[(2R)-2-chloro-2-fluoro-acetyl]-[[(3S)-2-oxopyrrolidin-3-yl]methyl]amino]carbamoyl]-6,6-dimethyl-3-azabicyclo[3.1.0]hexan-3-yl]-2-oxo-1-(4-pyridylmethyl)ethyl]-2,2,2-trifluoro-acetamide]",IC50,HCoV-229E 3CLpro,28 nM
same,IC50,SARS-CoV-2 3CLpro,10 nM
same,IC50,SARS-CoV 3CLpro,14 nM
same,IC50,MERS-CoV 3CLpro,84 nM
"CC[C@H](C)[C@H](NC(=O)c1ccccc1)C(=O)N1C[C@@H]2CCC[C@@H]2[C@H]1C(=O)NN(C[C@@H]1CCNC1=O)C(=O)[C@H](F)Cl [Example 80, N-[(1S,2S)-1-[(3S,3aS,6aR)-3-[[[(2R)-2-chloro-2-fluoro-acetyl]-[[(3S)-2-oxopyrrolidin-3-yl]methyl]amino]carbamoyl]-3,3a,4,5,6,6a-hexahydro-1H-cyclopenta[c]pyrrole-2-carbonyl]-2-methyl-butyl]benzamide]",IC50,HCoV-229E 3CLpro,20 nM
same,IC50,SARS-CoV-2 3CLpro,10 nM
same,IC50,SARS-CoV 3CLpro,11 nM
same,IC50,MERS-CoV 3CLpro,58 nM
"CC[C@H](C)[C@H](NC(=O)C1(F)CC1)C(=O)N1C[C@H]2[C@@H]([C@H]1C(=O)NN(C[C@H]1CCCNC1=O)C(=O)[C@H](F)Cl)C2(C)C [Example 166b, N-[(1S,2S)-1-[(1R,2S,5S)-2-[[[(2R)-2-chloro-2-fluoro-acetyl]-[[(3R)-2-oxo-3-piperidyl]methyl]amino]carbamoyl]-6,6-dimethyl-3-azabicyclo[3.1.0]hexane-3-carbonyl]-2-methyl-butyl]-1-fluoro-cyclopropanecarboxamide]",IC50,HCoV-229E 3CLpro,51 nM
same,IC50,SARS-CoV-2 3CLpro,19 nM
same,IC50,SARS-CoV 3CLpro,30 nM
same,IC50,MERS-CoV 3CLpro,239 nM
"CC[C@H](NC(=O)C(F)(F)F)C(=O)N1C[C@@H]2CCC[C@@H]2[C@H]1C(=O)NN(C[C@@H]1CCNC1=O)C(=O)[C@H](F)Cl [Example 72, N-[(1S)-1-[(3S,3aS,6aR)-3-[[[(2R)-2-chloro-2-fluoro-acetyl]-[[(3S)-2-oxopyrrolidin-3-yl]methyl]amino]carbamoyl]-3,3a,4,5,6,6a-hexahydro-1H-cyclopenta[c]pyrrole-2-carbonyl]propyl]-2,2,2-trifluoro-acetamide]",IC50,HCoV-229E 3CLpro,23 nM
same,IC50,SARS-CoV-2 3CLpro,8 nM
same,IC50,SARS-CoV 3CLpro,11 nM
same,IC50,MERS-CoV 3CLpro,58 nM
"CC(C)(C)[C@H](NC(=O)C(F)(F)F)C(=O)N1C[C@H]2[C@@H]([C@H]1C(=O)NN(CCC(N)=O)C(=O)[C@H](F)Cl)C2(C)C [Example 87, 3-[[(2R)-2-chloro-2-fluoro-acetyl]-[[(1R,2S,5S)-3-[(2S)-3,3-dimethyl-2-[(2,2,2-trifluoroacetyl)amino]butanoyl]-6,6-dimethyl-3-azabicyclo[3.1.0]hexane-2-carbonyl]amino]amino]propanamide]",IC50,HCoV-229E 3CLpro,19 nM
same,IC50,SARS-CoV-2 3CLpro,14 nM
same,IC50,SARS-CoV 3CLpro,9.3 nM
same,IC50,MERS-CoV 3CLpro,73 nM
"CC(C)C[C@H](NC(=O)C(F)(F)F)C(=O)N1C[C@H]2[C@@H]([C@H]1C(=O)NN(C[C@@H]1CCNC1=O)C(=O)[C@H](F)Cl)C2(C)C [Example 3, N-[(1S)-1-[(1R,2S,5S)-2-[[[(2R)-2-chloro-2-fluoro-acetyl]-[[(3S)-2-oxopyrrolidin-3-yl]methyl]amino]carbamoyl]-6,6-dimethyl-3-azabicyclo[3.1.0]hexane-3-carbonyl]-3-methyl-butyl]-2,2,2-trifluoro-acetamide]",IC50,HCoV-229E 3CLpro,38 nM
same,IC50,SARS-CoV-2 3CLpro,14 nM
same,IC50,SARS-CoV 3CLpro,20 nM
same,IC50,MERS-CoV 3CLpro,174 nM
"CC(C)(C)[C@H](NC(=O)C(F)(F)F)C(=O)N1CCC(C)(C)[C@H]1C(=O)NN(C[C@@H]1CCNC1=O)C(=O)[C@H](F)Cl [Example 155a, N-[(1S)-1-[(2S)-2-[[[(2R)-2-chloro-2-fluoro-acetyl]-[[(3S)-2-oxopyrrolidin-3-yl]methyl]amino]carbamoyl]-3,3-dimethyl-pyrrolidine-1-carbonyl]-2,2-dimethyl-propyl]-2,2,2-trifluoro-acetamide]",IC50,HCoV-229E 3CLpro,739 nM
same,IC50,SARS-CoV-2 3CLpro,24 nM
same,IC50,SARS-CoV 3CLpro,28 nM
same,IC50,MERS-CoV 3CLpro,1330 nM
"CCC(C)(C)[C@H](NC(=O)C1CC1)C(=O)N1C[C@H]2[C@@H]([C@H]1C(=O)NN(C[C@@H]1CCCNC1=O)C(=O)[C@H](F)Cl)C2(C)C [Example 169a, N-[(1S)-1-[(1R,2S,5S)-2-[[[(2R)-2-chloro-2-fluoro-acetyl]-[[(3S)-2-oxo-3-piperidyl]methyl]amino]carbamoyl]-6,6-dimethyl-3-azabicyclo[3.1.0]hexane-3-carbonyl]-2,2-dimethyl-butyl]cyclopropanecarboxamide]",IC50,HCoV-229E 3CLpro,56 nM
same,IC50,SARS-CoV-2 3CLpro,9 nM
same,IC50,SARS-CoV 3CLpro,20 nM
same,IC50,MERS-CoV 3CLpro,118 nM
"CCC(C)(C)[C@H](NC(=O)C1CC1)C(=O)N1CC(C)(C)C[C@H]1C(=O)NN(C[C@H]1CCCNC1=O)C(=O)[C@H](F)Cl [Example 168b, N-[(1S)-1-[(2S)-2-[[[(2R)-2-chloro-2-fluoro-acetyl]-[[(3R)-2-oxo-3-piperidyl]methyl]amino]carbamoyl]-4,4-dimethyl-pyrrolidine-1-carbonyl]-2,2-dimethyl-butyl]cyclopropanecarboxamide]",IC50,HCoV-229E 3CLpro,219 nM
same,IC50,SARS-CoV-2 3CLpro,100 nM
same,IC50,SARS-CoV 3CLpro,185 nM
same,IC50,MERS-CoV 3CLpro,2110 nM
"CC[C@H](C)[C@H](NC(=O)C(C)C)C(=O)N1C[C@@H]2CCC[C@@H]2[C@H]1C(=O)NN(C[C@@H]1CCNC1=O)C(=O)[C@H](F)Cl [Example 47, N-[(1S,2S)-1-[(3S,3aS,6aR)-3-[[[(2R)-2-chloro-2-fluoro-acetyl]-[[(3S)-2-oxopyrrolidin-3-yl]methyl]amino]carbamoyl]-3,3a,4,5,6,6a-hexahydro-1H-cyclopenta[c]pyrrole-2-carbonyl]-2-methyl-butyl]-2-methyl-propanamide]",IC50,HCoV-229E 3CLpro,26 nM
same,IC50,SARS-CoV-2 3CLpro,7 nM
same,IC50,SARS-CoV 3CLpro,12 nM
same,IC50,MERS-CoV 3CLpro,76 nM
"CC(C)(C)[C@H](NC(=O)C1CC1)C(=O)N1C[C@@H]2CCC[C@@H]2[C@H]1C(=O)NN(C[C@@H]1CCNC1=O)C(=O)[C@H](F)Cl [Example 31, N-[(1S)-1-[(3S,3aS,6aR)-3-[[[(2R)-2-chloro-2-fluoro-acetyl]-[[(3S)-2-oxopyrrolidin-3-yl]methyl]amino]carbamoyl]-3,3a,4,5,6,6a-hexahydro-1H-cyclopenta[c]pyrrole-2-carbonyl]-2,2-dimethyl-propyl]cyclopropanecarboxamide]",IC50,HCoV-229E 3CLpro,28 nM
same,IC50,SARS-CoV-2 3CLpro,8 nM
same,IC50,SARS-CoV 3CLpro,12 nM
same,IC50,MERS-CoV 3CLpro,76 nM
"CC[C@H](C)[C@H](NC(C)=O)C(=O)N1C[C@@H]2CCC[C@@H]2[C@H]1C(=O)NN(C[C@@H]1CCNC1=O)C(=O)[C@H](F)Cl [Example 81, N-[(1S,2S)-1-[(3S,3aS,6aR)-3-[[[(2R)-2-chloro-2-fluoro-acetyl]-[[(3S)-2-oxopyrrolidin-3-yl]methyl]amino]carbamoyl]-3,3a,4,5,6,6a-hexahydro-1H-cyclopenta[c]pyrrole-2-carbonyl]-2-methyl-butyl]acetamide]",IC50,HCoV-229E 3CLpro,45 nM
same,IC50,SARS-CoV-2 3CLpro,9 nM
same,IC50,SARS-CoV 3CLpro,15 nM
same,IC50,MERS-CoV 3CLpro,93 nM
"CC[C@@H](C)[C@H](NC(=O)[C@H](C)F)C(=O)N1C[C@H]2[C@@H]([C@H]1C(=O)NN(C[C@@H]1CCNC1=O)C(=O)[C@@H](F)Cl)C2(C)C [Example 122, (2S)—N-[(1S,2R)-1-[(1R,2S,5S)-2-[[[(2S)-2-chloro-2-fluoro-acetyl]-[[(3S)-2-oxopyrrolidin-3-yl]methyl]amino]carbamoyl]-6,6-dimethyl-3-azabicyclo[3.1.0]hexane-3-carbonyl]-2-methyl-butyl]-2-fluoro-propanamide]",IC50,HCoV-229E 3CLpro,46 nM
same,IC50,SARS-CoV-2 3CLpro,26 nM
same,IC50,SARS-CoV 3CLpro,36 nM
same,IC50,MERS-CoV 3CLpro,146 nM
"CC1(C)[C@@H]2[C@@H](C(=O)NN(C[C@@H]3CCNC3=O)C(=O)[C@H](F)Cl)N(C(=O)c3cc(F)cc(C(F)(F)F)c3)C[C@@H]21 [Example 179, (1R,2S,5S)—N′-[(2R)-2-chloro-2-fluoro-acetyl]-3-[3-fluoro-5-(trifluoromethyl)benzoyl]-6,6-dimethyl-N′—[[(3S)-2-oxopyrrolidin-3-yl]methyl]-3-azabicyclo[3.1.0]hexane-2-carbohydrazide]",IC50,HCoV-229E 3CLpro,93 nM
same,IC50,SARS-CoV-2 3CLpro,201 nM
same,IC50,SARS-CoV 3CLpro,222 nM
same,IC50,MERS-CoV 3CLpro,315 nM
